Measurements from patent US20040053872A1, “New sequences” (priority 2000, published 2004).
Strand notation (5' to 3'): a small letter for the sugar, then the base; units joined by * are phosphorothioate-linked, units joined directly phosphodiester-linked; [ ] holds rarer units or linkages, { } end groups; capitals alone tell only the bases. r = 2'-OH (RNA)

Legend:
[1] = target: T1, recombinant HIV-1 RT E478Q (Human immunodeficiency virus type 1 group M subtype B, UniProt P03366, E1077Q); assay type: biochemical; settings: second strand DNA synthesis, preincubation 30 minutes at 33° C., 3 hours, read-out: IC50 of indicated inhibitor in DNAp assay
T1 construct: performed by recombinant HIV-1 RT:s with defined
From the text: (§1) The flourimetric DNA-polymerase assay used is available from Cavidi Tech AB, Uppsala, Sweden. It is based on a short DNA primer analogous to a part of the tRNA^Lys3 sequence. The template is a single stranded deoxynucleotide template with part of the sequence complementary to the primer. The enzyme reaction is dependent on all four deoxynucleotide bases. The thymidine triphosphate is, however, replaced by BrdUTP. The amount of BrdUMP incorporated into DNA during the polymerase reaction is detected with an alkaline phosphatase (Ap) conjugated anti-BrdU monoclonal antibody. An Ap substrate, 4-methylumbelliferyl phosphate, is finally used for fluorimetric product detection.
(§2) (ii) Protocol for determination of inhibition of second strand synthesis on a variable DNA template: The inhibition studies were performed in a modified DNA polymerase assay. The inhibitors were serially diluted in five steps, enzyme dilution was added and the enzyme/inhibitor mixtures were incubated for 30 minutes at 33° C. The enzyme reaction was initiated by addition of 75 μl aliquots of the enzyme/inhibitor mixture to each well of a microtiter plate containing 75 μl DNA polymerase reaction mixture per well. The polymerase reaction was allowed to proceed for 3 hours at 33° C. whereupon the reaction was terminated by a wash of the plate. […] The amount of RT used was standardised to an activity corresponding to 40-60 pg (3.3-5.0×10^−16 mol) reference HIV-1 RT per well.
(§3) The capacity of the indicated substances to inhibit each enzyme in a panel of recombinant HIV 1 subtype B RTs was studied according to “Protocol for determination of inhibition of second strand synthesis on variable DNA template” (protocol (ii) above).

[2] = target: T2, recombinant HIV-1 RT K103N/E478Q (Human immunodeficiency virus type 1 group M subtype B, UniProt P03366, E1077Q/K702N); assay type: biochemical; settings: second strand DNA synthesis, preincubation 30 minutes at 33° C., 3 hours, read-out: IC50 of indicated inhibitor in DNAp assay
T2 construct: performed by recombinant HIV-1 RT:s with defined
From the text: as §1, §2, §3

[3] = target: T3, recombinant HIV-1 RT L100I (Human immunodeficiency virus type 1 group M subtype B, UniProt P03366, L699I); assay type: biochemical; settings: second strand DNA synthesis, preincubation 30 minutes at 33° C., 3 hours, read-out: IC50 of indicated inhibitor in DNAp assay
T3 construct: performed by recombinant HIV-1 RT:s with defined
From the text: as §1, §2, §3

[4] = tested on: panel of recombinant HIV 1 subtype B RTs; assay: RT assay: inhibition of RNA dependent DNA polymerisation, whole RT panel; assay type: biochemical; settings: for IC50: all RTs of the panel, summary of table 1, read-out: IC50, range over all RTs studied (reverse transcription)
Experimental: The flourimetric RT assay (Cavidi® Lenti RT activity kit), available from Cavidi Tech, Uppsala, Sweden, was used for the determination of RT activity. In short, poly(rA) covalently bound to the wells of a 96 well microtiter plate serves as template for the incorporation of 5-bromodeoxyuridine 5′-triphosphate (BrdUTP) during the reverse transcription step at 33° C. The amount of bromodeoxyuridine monophosphate (BrdUMP) incorporated into DNA is detected with an alkaline phosphatase (Ap) conjugated, anti-BrdU monoclonal antibody. An Ap substrate, 4-methylumbelliferyl phosphate, is finally used for fluorimetric product detection.
(i) Protocol for determination of inhibition of RNA dependent DNA polymerisation: The inhibition studies were performed in a modified Lenti RT assay. […]
The final nucleotide substrate (BrdUTP) concentration was 0.35 μM, and the primer (odT22) amount was 0.03 ng per well.

[5] = tested on: panel of recombinant HIV 1 subtype B RTs; assay: DNAp assay: inhibition of second strand DNA synthesis, whole RT panel; assay type: biochemical; settings: all RTs of the panel; summary of table 2; read-out: IC50, range over all RTs studied (second strand DNA synthesis)
From the text: as §1
(ii) Protocol for determination of inhibition of second strand synthesis on a variable DNA template: The inhibition studies were performed in a modified DNA polymerase assay. […] The enzyme reaction was initiated by addition of 75 μl aliquots of the enzyme/inhibitor mixture to each well of a microtiter plate containing 75 μl DNA polymerase reaction mixture per well.
The results, which are summarised in table 2, were rather similar to those found for inhibition of reverse transcription (table 1).

[6] = tested on: panel of recombinant HIV 1 subtype B RTs; assay: RT binding inhibition (BIC) assay, whole RT panel; settings: all conditions studied
Experimental: (§4) (iii) Protocol for RT binding inhibition (BIC) assay: The study was performed in a modified DNA polymerase assay. The inhibitors were serially diluted in five steps, enzyme dilution was added and the enzyme/inhibitor mixtures were incubated for 30 minutes at 33° C. Aliquots of the enzyme/inhibitor mixture were transferred to each well of a microtiter plate containing either immobilised primer, or primer/template. The enzyme was allowed to bind to the immobilised polymer for 90 min at 33° C. The amount of RT used was standardised to an activity corresponding to 40-60 pg (3.3-5.0×10^−16 mol) reference HIV-1 RT per well. The plates were then washed to remove unbound enzyme whereupon the amount of bound enzyme was determined by addition of the appropriate reaction solution for polymerisation (i e a reaction solution devoid of primer for studies of primer binding and a reaction solution devoid of both primer and template for studies of binding to primed template). The polymerase reaction was allowed to proceed for 3 hours at 33° C., whereupon the reaction was terminated by a wash of the plate.
(§5) The capacity of the indicated substances to inhibit the binding to primer or to primed DNA template of a panel of recombinant HIV 1 subtype B RTs was studied according to “Protocol for RT binding inhibition (BIC) assay” (protocol (iii) above).

[7] = target: recombinant HIV-1 RT, ref RT (HIV type B, clone BH 10) (Human immunodeficiency virus type 1 group M subtype B, UniProt P03366); parameters: performed by recombinant HIV-1 RT:s with defined; settings: immobilised primer/template, binding 90 min at 33° C., read-out: Inhibition of binding to template/primer (BIC50)
Experimental: as §4, §5

| Substance | IC50 [1] [µM] | IC50 [2] [µM] | IC50 [3] [µM] | IC50 [4] [µM] | Results with inhibitor added directly to the RT reaction mixture compared with the standard procedure ([4]; alternative procedure without pre-incubation) | IC50 [5] [µM] | Capacity to prevent RT binding to primer or primed template [6] | IC50 [7] [µM] |
| --- | --- | --- | --- | --- | --- | --- | --- | --- |
| substance 199: 35-mer RNA molecule having the sequence set out in SEQ ID NO:5; similar to SEQ ID NO:4 with some naturally occurring nucleotide derivatives (GCUCAGNCGGNAGAGCANCAGACUUUUAANCUGAN; RNA, backbone, methylation of C and the base at N not given here; naturally occurring modified nucleosides at n positions) | 0.034 | 0.051 | 0.036 | 0.006 to 0.012 | not significantly different | 0.036 to 0.051 | had the capacity to prevent RT binding to either primer alone or to primed template | 0.007 |
| substance 198: 15-mer RNA phosphorothioate with the base sequence of tRNALys3 anticodon stem and loop, SEQ ID NO:7 (rC*rA*rG*rA*rC*rU*rU*rU*rU*rA*rA*rU*rC*rU*rG) [reference compound] | 1 | 1 | 0.22 | 0.34 to 1.1 |  | 0.55 to 1 | significantly less capacity to prevent RT binding | 0.9 |
